In patent US4891361A, “Method of minimizing erythema and elastosis” (Sansho Seiyaku Co., Ltd., priority 1985, dated 1990):

Columns and labels:
mice = mice (both male and female), orally administered; cited from earlier work
elastosis = test: Animal test: UV-induced elastosis, elastic fiber histology (Hematoxylin-Eosin, Weigert and Orcein-Giemsa staining); format: in vivo, female Spraguex-Dawley rats; settings: Test Zone, 1% suspension, total 10, end of the test (12 months)
From the text: (§1) Test Method Ten heads of female Spraguex-Dawley rats of 4-week age were used for the test. The back of each rat was divided into two zones along its center line; one (test zone) was coated with a 1% suspension of kojic acid in a 1% aqueous solution of carboxymethylcellulose, and the other (control zone) was coated with a 1% aqueous solution of carboxymethylcellulose. The coated solution was washed off with hot water one hour later, and each zone was then irradiated with ultraviolet rays for 20 minutes using four UV tubes (Toshiba, Model 20S;E30) placed 62 cm away from the back of each rat. This operation was performed three times a week (on Monday, Wednesday and Friday) and continued over a period of six months. The drug solution and control solution were applied every day (even on days when UV irradiation was omitted). After that, the coating operation alone was continued for an additional six months. At the end of the test, tissues were excised from the test and control zones of each rat, paraffin sections of the skin, prepared from the tissues taken out, were subjected to a Hematoxylin-Eosin, Weigert and Orcein-Giemsa staining process, and the conditions of the elastic fiber were observed.

rats = rats (both male and female), orally administered; cited from earlier work
erythema = test: Animal test: severity of UV-induced erythema on rat back; format: in vivo, female Spraguex-Dawley rats; parameters: key: -: No erythema; ±: Very slight erythema; +: Slight erythema; ++: Medium erythema; +++: Severe erythema; settings: Test zone, 1% suspension
From the text: as §1, with “Severity of erythema developed on each zone was observed immediately after” for “At”, “start” for “end”, “test,” for “test, tissues were excised from the test”, “2, 4, 6, 8, 10” for “control zones of each rat, paraffin sections of the skin, prepared from the tissues taken out, were subjected to a Hematoxylin-Eosin, Weigert”, “12 months later.” for “Orcein-Giemsa staining process, and the conditions of the elastic fiber were observed.”

mouse melanoma B16 cells = test: Color fading test of cultured pigment cells (mouse melanoma B16 cells); format: cell-based
Protocol: Besides the effects described above, the drugs of this invention also have powerful action to inhibit the formation of melanin. To be more specific, the drugs are very effective in inhibiting the formation of dopachrome (a red pigment). […] A color fading test of cultured pigment cells was carried out using kojic acid and kojic acid/β-cyclodextrin inclusion complex.
B: 20% solution of kojic acid/β-cyclodextrin inclusion complex
Mouse melanoma B16 cells (hereinafter referred to simply as "B16 cells") (each dish containing […] cells) were grown in Eagle's MEM medium (with 10% fetal calf serum added thereto), (a) in the presence of kojic acid at a concentration of 2.5 mM (Test zone A), (b) in the presence of kojic acid/β-cyclodextrin inclusion complex at a concentration of 2.5 mM (as kojic acid) (Test zone B), and (c) in the absence of any drug (Test zone C), at 37° C. for six days in an atmosphere consisting of 5% CO2 and 95% air. At the end of incubation, each culture was treated with trypsin, then centrifuged at 2000rpm for five minutes to prepare cell pellets, and the degree of blackness was visually compared.

In the case of `O=c1cc(CO)occ1O` [Kojic acid], the LD50 (mice) is given as 2500 to 3500 mg/kg, the “Number of rats with evaluation + (Slight elastosis)” value (elastosis) is given as 3 and the “Number of rats with evaluation ++ (Medium elastosis)” value (elastosis) is given as 1. The “Number of rats with evaluation +++ (Severe elastosis)” value (elastosis) was 0, the “Number of rats with evaluation - (No elastosis)” value (elastosis) was 3 and the “Number of rats with evaluation ± (Very slight elastosis)” value (elastosis) was 3. For the same compound, the LD50 (rats) was 2500 to 3500 mg/kg, the Severity of erythema (erythema; Coating Alone, month 8) was “-” and the Severity of erythema (erythema; Coating Alone, month 10) was “-”. The Severity of erythema (erythema; Coating Alone, month 12) was “-”, the Severity of erythema (erythema; Irradiation Period, month 0 (immediately after the start)) was “-” and the Severity of erythema (erythema; Irradiation Period, month 2) was “+”. The Severity of erythema (erythema; Irradiation Period, month 4) was “++”, the Severity of erythema (erythema; Irradiation Period, month 6) was “++” and the “Color fading (degree of blackness of cell pellet, visual)” value (mouse melanoma B16 cells; 2.5 mM (as kojic acid), six days, 37° C., compared with Test zone C (control)) was “Considerable color fading”. For the same compound, the “Inhibition of the formation of melanin (conclusion from color fading test)” value (mouse melanoma B16 cells; mouse melanoma B16 cells) was “outstanding effect”.
